ChEMBL document CHEMBL1201862, “PubChem BioAssay data set” (2004)
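96-well plates; 48 h exposure; 5 concentrations. Endpoints by linear interpolation between flanking doses. Not reached: highest tested concentration assigned. Abbreviation: GI50, concentration required for 50% inhibition of growth.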 Activity calls are given as the source filed them. Cut-off read from the data, not from the text of the source: active = GI50 up to about 1.1 µM and inactive = higher.

Assays:
Assay in all cases: NCI-60 cell line screen, 48 h
[1] = system: HT-29
[2] = system: ACHN
[3] = system: SK-MEL-28
[4] = system: HOP-92
[5] = system: OVCAR-4
[6] = system: SF-268
[7] = system: SK-MEL-5
[8] = system: NCI-H226
[9] = system: Malme-3M
[10] = system: HCC 2998
[11] = system: SNB-19
[12] = system: HOP-62
[13] = system: SNB-78
[14] = system: HCT-116
[15] = system: SF-539
[16] = system: RXF 631
[17] = system: KM12
[18] = system: K562
[19] = system: SK-OV-3
[20] = system: SN12C
[21] = system: HL-60
[22] = system: UO-31
[23] = system: OVCAR-3
[24] = system: SK-MEL-2
[25] = system: A498
[26] = system: 786-0
[27] = system: NCI-H23
[28] = system: UACC-257
[29] = system: SR
[30] = system: IGROV-1
[31] = system: LXFL 529
[32] = system: OVCAR-5
[33] = system: SF-295
[34] = system: LOX IMVI
[35] = system: M19-MEL
[36] = system: OVCAR-8
[37] = system: M14
[38] = system: CCRF-CEM
[39] = system: KM-20L2
[40] = system: HCT-15
[41] = system: SW-620
[42] = system: DMS-273
[43] = system: COLO 205
[44] = system: DMS-114
[45] = system: EKVX
[46] = system: CAKI-1
[47] = system: HOP-18
[48] = system: MOLT-4
[49] = system: NCI-H522
[50] = system: SNB-75
[51] = system: U-251
[52] = system: A549
[53] = system: UACC-62
[54] = system: NCI-H460
[55] = system: RXF 393
[56] = system: TK-10
[57] = system: DLD-1
[58] = system: RPMI-8226
[59] = system: XF498

Structure (SMILES): CN(C)CCNC(=O)c1cccc2ncc(-c3ccccc3)nc12
- GI50 [1]: 6.17 µM (inactive)
- GI50 [2]: 5.35 µM (inactive)
- GI50 [3]: 18.2 µM (inactive)
- GI50 [4]: 18.7 µM (inactive)
- GI50 [5]: 8.77 µM (inactive)
- GI50 [6]: 10.6 µM (inactive)
- GI50 [7]: 11.5 µM (inactive)
- GI50 [8]: 7.91 µM (inactive)
- GI50 [9]: 13 µM (inactive)
- GI50 [10]: 9.59 µM (inactive)
- GI50 [11]: 17.1 µM (inactive)
- GI50 [12]: 9.25 µM (inactive)
- GI50 [13]: 8.89 µM (inactive)
- GI50 [14]: 4.26 µM (inactive)
- GI50 [15]: 4.51 µM (inactive)
- GI50 [16]: 9.59 µM (inactive)
- GI50 [17]: 11.8 µM (inactive)
- GI50 [18]: 9.02 µM (inactive)
- GI50 [19]: 16.4 µM (inactive)
- GI50 [20]: 6.14 µM (inactive)
- GI50 [21]: 14.4 µM (inactive)
- GI50 [22]: 8.89 µM (inactive)
- GI50 [23]: 19.5 µM (inactive)
- GI50 [24]: 14.6 µM (inactive)
- GI50 [25]: 6.15 µM (inactive)
- GI50 [26]: 10 µM (inactive)
- GI50 [27]: 14.6 µM (inactive)
- GI50 [28]: 14.7 µM (inactive)
- GI50 [29]: 1.9 µM (inactive)
- GI50 [30]: 20.5 µM (inactive)
- GI50 [31]: 6.81 µM (inactive)
- GI50 [32]: 9.04 µM (inactive)
- GI50 [33]: 14.2 µM (inactive)
- GI50 [34]: 7.66 µM (inactive)
- GI50 [35]: 14.2 µM (inactive)
- GI50 [36]: 7.52 µM (inactive)
- GI50 [37]: 13.9 µM (inactive)
- GI50 [38]: 8.99 µM (inactive)
- GI50 [39]: 3.81 µM (inactive)
- GI50 [40]: 5.37 µM
- GI50 [41]: 5.31 µM (inactive)
- GI50 [42]: 5.09 µM (inactive)
- GI50 [43]: 4.11 µM (inactive)
- GI50 [44]: 12.8 µM (inactive)
- GI50 [45]: 13.3 µM (inactive)
- GI50 [46]: 6.58 µM (inactive)
- GI50 [47]: 5.85 µM (inactive)
- GI50 [48]: 2.52 µM (inactive)
- GI50 [49]: 5.78 µM (inactive)
- GI50 [50]: 17.5 µM (inactive)
- GI50 [51]: 8.26 µM (inactive)
- GI50 [52]: 6.9 µM (inactive)
- GI50 [53]: 13.8 µM (inactive)
- GI50 [54]: 4.41 µM (inactive)
- GI50 [55]: 5.86 µM (inactive)
- GI50 [56]: 6.93 µM (inactive)
- GI50 [57]: 5.45 µM (inactive)

Structure (SMILES): CC1=C2C(c3ccccc3)(c3ccccc3)C3C=CC2(C=N3)N(C(=O)NC2CCCCC2)C1=O (stereo not drawn)
- GI50 [2]: 19.5 µM (inactive)
- GI50 [3]: 16.7 µM (inactive)
- GI50 [4]: 13.4 µM (inactive)
- GI50 [5]: 17.6 µM (inactive)
- GI50 [6]: 17.4 µM (inactive)
- GI50 [7]: 16.8 µM (inactive)
- GI50 [9]: 17.4 µM (inactive)
- GI50 [10]: 17.9 µM (inactive)
- GI50 [11]: 17.6 µM (inactive)
- GI50 [12]: 17.5 µM (inactive)
- GI50 [13]: 16.3 µM (inactive)
- GI50 [14]: 16 µM (inactive)
- GI50 [15]: 15.9 µM (inactive)
- GI50 [16]: 12.7 µM (inactive)
- GI50 [17]: 18.1 µM (inactive)
- GI50 [18]: 17.5 µM (inactive)
- GI50 [19]: 28.7 µM (inactive)
- GI50 [20]: 17.6 µM (inactive)
- GI50 [21]: 14.7 µM (inactive)
- GI50 [22]: 14.3 µM (inactive)
- GI50 [23]: 14.8 µM (inactive)
- GI50 [25]: 17.5 µM (inactive)
- GI50 [26]: 15.4 µM (inactive)
- GI50 [27]: 18.4 µM (inactive)
- GI50 [28]: 17.1 µM (inactive)
- GI50 [29]: 17.1 µM (inactive)
- GI50 [30]: 18.9 µM (inactive)
- GI50 [31]: 16.6 µM (inactive)
- GI50 [32]: 17.7 µM (inactive)
- GI50 [33]: 16.9 µM (inactive)
- GI50 [34]: 15.7 µM (inactive)
- GI50 [36]: 17.9 µM (inactive)
- GI50 [37]: 17.5 µM (inactive)
- GI50 [38]: 16.5 µM (inactive)
- GI50 [39]: 16.8 µM (inactive)
- GI50 [40]: 16.4 µM
- GI50 [41]: 17.3 µM (inactive)
- GI50 [42]: 17.9 µM (inactive)
- GI50 [43]: 15.9 µM (inactive)
- GI50 [58]: 15.9 µM (inactive)
- GI50 [44]: 17.9 µM (inactive)
- GI50 [45]: 14.8 µM (inactive)
- GI50 [46]: 12.6 µM (inactive)
- GI50 [47]: 18.7 µM (inactive)
- GI50 [48]: 17.4 µM (inactive)
- GI50 [51]: 16.6 µM (inactive)
- GI50 [52]: 16.9 µM (inactive)
- GI50 [53]: 18.7 µM (inactive)

Structure (SMILES): O=[N+]([O-])c1c(/C=N/c2ccccc2)oc(-c2ccc3c(c2)OCO3)c1-c1ccc2c(c1)OCO2
- GI50 [1]: > 100 µM (inactive)
- GI50 [2]: > 100 µM (inactive)
- GI50 [3]: > 100 µM (inactive)
- GI50 [4]: 65.6 µM (inactive)
- GI50 [5]: > 100 µM (inactive)
- GI50 [6]: > 100 µM (inactive)
- GI50 [7]: > 100 µM (inactive)
- GI50 [8]: 48.8 µM (inactive)
- GI50 [9]: > 100 µM (inactive)
- GI50 [10]: > 100 µM (inactive)
- GI50 [11]: > 100 µM (inactive)
- GI50 [12]: > 100 µM (inactive)
- GI50 [13]: > 100 µM (inactive)
- GI50 [14]: > 100 µM (inactive)
- GI50 [15]: > 100 µM (inactive)
- GI50 [16]: > 100 µM (inactive)
- GI50 [17]: > 100 µM (inactive)
- GI50 [18]: > 100 µM (inactive)
- GI50 [19]: 44.9 µM (inactive)
- GI50 [20]: > 100 µM (inactive)
- GI50 [21]: > 100 µM (inactive)
- GI50 [22]: 9.29 µM (inactive)
- GI50 [23]: > 100 µM (inactive)
- GI50 [26]: > 100 µM (inactive)
- GI50 [27]: > 100 µM (inactive)
- GI50 [28]: > 100 µM (inactive)
- GI50 [29]: > 100 µM (inactive)
- GI50 [30]: > 100 µM (inactive)
- GI50 [31]: > 100 µM (inactive)
- GI50 [32]: > 100 µM (inactive)
- GI50 [33]: > 100 µM (inactive)
- GI50 [34]: > 100 µM (inactive)
- GI50 [35]: > 100 µM (inactive)
- GI50 [36]: > 100 µM (inactive)
- GI50 [37]: > 100 µM (inactive)
- GI50 [39]: > 100 µM (inactive)
- GI50 [40]: > 100 µM
- GI50 [41]: > 100 µM (inactive)
- GI50 [42]: > 100 µM (inactive)
- GI50 [43]: > 100 µM (inactive)
- GI50 [58]: > 100 µM (inactive)
- GI50 [59]: > 100 µM (inactive)
- GI50 [44]: 60.7 µM (inactive)
- GI50 [46]: > 100 µM (inactive)
- GI50 [48]: > 100 µM (inactive)
- GI50 [49]: > 100 µM (inactive)
- GI50 [50]: 50.2 µM (inactive)
- GI50 [51]: > 100 µM (inactive)
- GI50 [52]: > 100 µM (inactive)
- GI50 [53]: > 100 µM (inactive)
- GI50 [54]: > 100 µM (inactive)
- GI50 [55]: > 100 µM (inactive)
- GI50 [56]: > 100 µM (inactive)
- GI50 [57]: > 100 µM (inactive)

Structure (SMILES): CCN(CC)C1CC(n2cc(C)c(=O)[nH]c2=O)OC1CO (stereo not drawn)
- GI50 [3]: > 100 µM (inactive)
- GI50 [4]: > 100 µM (inactive)
- GI50 [5]: > 100 µM (inactive)
- GI50 [6]: > 100 µM (inactive)
- GI50 [8]: > 100 µM (inactive)
- GI50 [9]: > 100 µM (inactive)
- GI50 [10]: > 100 µM (inactive)
- GI50 [12]: > 100 µM (inactive)
- GI50 [13]: > 100 µM (inactive)
- GI50 [14]: > 100 µM (inactive)
- GI50 [15]: > 100 µM (inactive)
- GI50 [16]: > 100 µM (inactive)
- GI50 [18]: > 100 µM (inactive)
- GI50 [19]: > 100 µM (inactive)
- GI50 [20]: > 100 µM (inactive)
- GI50 [21]: > 100 µM (inactive)
- GI50 [22]: > 100 µM (inactive)
- GI50 [24]: > 100 µM (inactive)
- GI50 [25]: > 100 µM (inactive)
- GI50 [26]: > 100 µM (inactive)
- GI50 [27]: > 100 µM (inactive)
- GI50 [29]: > 100 µM (inactive)
- GI50 [30]: > 100 µM (inactive)
- GI50 [31]: > 100 µM (inactive)
- GI50 [35]: > 100 µM (inactive)
- GI50 [37]: > 100 µM (inactive)
- GI50 [38]: > 100 µM (inactive)
- GI50 [42]: > 100 µM (inactive)
- GI50 [43]: > 100 µM (inactive)
- GI50 [58]: > 100 µM (inactive)
- GI50 [59]: > 100 µM (inactive)
- GI50 [44]: > 100 µM (inactive)
- GI50 [46]: > 100 µM (inactive)
- GI50 [48]: > 100 µM (inactive)
- GI50 [49]: > 100 µM (inactive)
- GI50 [50]: > 100 µM (inactive)
- GI50 [53]: > 100 µM (inactive)
- GI50 [54]: > 100 µM (inactive)
- GI50 [57]: > 100 µM (inactive)
